Where two headings read alike, the source gives them in different places.
Key:
[1] = in vivo, cited from earlier work
[2] = test system: human adult subjects in a water loaded state; assay: Antidiuretic effect (urine output, urine osmolarity, duration) in water loaded subjects; format: in vivo
Method: (§1) The open-label preliminary study of the effects and pharmacokinetics of the prototype dispensers was conducted with six male and six female healthy, water loaded, non-smoking volunteer subjects, following the protocol described generally below. In summary, each subject was dosed up to four times over a period of one week with dosing administered every other day. […] All subjects were screened prior to the first treatment, including evaluations of medical history, complete physical exam including nasopharyngeal exam, serum chemistry including serum osmolality, urinalysis including urine osmolality.
On day one all subjects were asked to have his/her morning void prior to breakfast, and thereafter subjects started the water loading process. […] To achieve a steady state diuresis, the subjects were directed to drink a volume of water corresponding to at least 1.5% and up to 3% of body weight. The water loading process started about two hours prior to the dosing of the first subject. Subjects were asked to void every 20 minutes. To ensure continuous water loaded state, the subjects replaced their urinary output loss with an equivalent amount of fluid. Insensible loss was not measured or replaced. When the urinary output rate exceeded 10 ml/min in two consecutive measurements (defined as water loaded state) in the subjects, dosing began. Subjects were maintained in the water loaded state with equivalent fluid intake versus fluid loss.
Other than the dose level, all procedures were the same as those described for day one.

[3] = clinical; conditions: human, in vivo, inhaled or intranasal
Method: as §1
On day one all subjects were asked to have his/her morning void prior to breakfast, and thereafter subjects started the water loading process. […] Insensible loss was not measured or replaced. […]
Blood sampling for pharmacokinetic determinations was performed at 1, 1.5, 2, 3, 4 and 6 hours post dose. […] A plasma concentration value below the limit of quantitation (“LOQ”) followed by values above the limit was set at ‘LOQ/2’ for the analysis and for the descriptive statistics on concentrations. […]
Assay values below the level of detection that occurred between two non-zero concentrations were considered to be “missing” for purposes of calculating the AUC. […] Accordingly, an average terminal half-life (Avg T1/2) was calculated for each subject that included a treatment with evaluable half-lives in that subject. […]

[4] = test system: adult patients with nocturia; format: in vivo, human; conditions: 500 and 1000 ng (one or two sprays intranasally)
Method: A second separate study in adult patients with nocturia established that doses of 500 and 1000 ng (one or two sprays administered intranasally) produced dramatic therapeutic decreases in the number of night time urinary voids equal to or less than one per night in 41 of 43 patients.

In the case of NC(=O)CC[C@@H]1NC(=O)[C@H](Cc2ccccc2)NC(=O)[C@H](Cc2ccc(O)cc2)NC(=O)CCSSC[C@@H](C(=O)N2CCC[C@H]2C(=O)N[C@H](CCCN=C(N)N)C(=O)NCC(N)=O)NC(=O)[C@H](CC(N)=O)NC1=O [desmopressin, 1-desamino-8-D-arginine vasopressin], the bioavailability ([1]; human, inhaled or intranasal) is listed as 3-5%, the half life ([1]; human) is listed as at least 90 min and the bioavailability ([1]; po) is listed as “far less than one percent”. The “time urine osmolarity remained greater than about 400 mOsmol/Kg” value ([2]; after 2 μg nasally) was “about 250 minutes”, the “period urine output remained less than 8 ml/minute” value ([2]; after 2000 ng nasally) was “up to 400 minutes” and the mean urine output ([2]; within 20 minutes after 2000 ng nasally, water loaded men and women) was “less than 8 ml/minute”. For the same compound, the mean urine osmolarity ([2]; within 40 minutes after 2 μg nasally) was “greater than 400 mOsmol/kg”, the half-life ([3]; both sexes, T1/2) was 67.8 ± 18 min and the T1/2 ([3]; both) was 1.33 ± 0.56 h. The “patients with night time urinary voids equal to or less than one per night” value [4] was 41 of 43.
